This is an account of results in patent publication US10004701B2, “Methods and compositions for treating infection” (UNIVERSITY OF ROCHESTER, priority 2012, dated 2018).

SMILES strings stand for the structures. Where two headings read alike, the source gives them in different places.

Holding throughout (assay): AK assay 384-well format, Prestwick library screening
In experiment [1] the test system is A. baumannii strain 98-37-09. In kind it is cell-based, Acinetobacter baumannii. Particulars: 50 μM final drug concentration; for fold induction at 50 µM: Acinetobacter baumannii, 983709, 3 h.
The subject of experiment [2] is K. pneumoniae. In kind it is cell-based, Klebsiella pneumoniae. Particulars: 50 μM final drug concentration; for fold induction at 50 µM: Klebsiella pneumoniae, 3 h.
Experiment [3] relates to E. cloacae. The format is cell-based, Enterobacter cloacae. Particulars: 50 μM final drug concentration; for fold induction at 50 µM: Enterobacter cloacae, 3 h.
For experiment [4], the system named is E. faecium. The format is cell-based, Enterococcus faecium. Particulars: 50 μM final drug concentration; for fold induction at 50 µM: Enterococcus faecium, 3 h.
Experiment [5] has as its system P. aeruginosa. The format is cell-based, Pseudomonas aeruginosa. Particulars: 50 μM final drug concentration; for fold induction at 50 µM: Pseudomonas aeruginosa, 3 h.
Experiment [6] has as its system E. coli. In kind it is cell-based, Escherichia coli. Particulars: 50 μM final drug concentration; for fold induction at 50 µM: Escherichia coli, 3 h.
Experiment [7] concerns S. aureus strain USA300-0114. In kind it is cell-based, Staphylococcus aureus. The settings on record: 50 μM final drug concentration; for fold induction at 50 µM: Staphylococcus aureus, USA300, 3 h.
[8] abbreviates: planktonic, cutoff for positive-scoring molecules 3-fold increase, read-out: AK-based Prestwick Library Screening Results, A. baumannii (fold increase in extracellular AK activity).
Setting [9] is: planktonic, cutoff for positive-scoring molecules 3-fold increase, read-out: AK-based Prestwick Library Screening Results, K. pneumoniae (fold increase in extracellular AK activity).
[10] abbreviates: planktonic, cutoff for positive-scoring molecules 3-fold increase, read-out: AK-based Prestwick Library Screening Results, E. cloacae (fold increase in extracellular AK activity).
Where [11] appears, read: planktonic, cutoff for positive-scoring molecules 3-fold increase, read-out: AK-based Prestwick Library Screening Results, E. faecium (fold increase in extracellular AK activity).
The mark [12] stands for this setting: planktonic, cutoff for positive-scoring molecules 3-fold increase, read-out: AK-based Prestwick Library Screening Results, P. aeruginosa (fold increase in extracellular AK activity).
[13] abbreviates: planktonic, cutoff for positive-scoring molecules 3-fold increase, read-out: AK-based Prestwick Library Screening Results, E. coli (fold increase in extracellular AK activity).
[14] abbreviates: planktonic, cutoff for positive-scoring molecules 3-fold increase, read-out: AK-based Prestwick Library Screening Results, S. aureus (fold increase in extracellular AK activity).
Setting [15] is: planktonic A. baumannii, 384-well, cutoff for positive-scoring molecules 3-fold increase, read-out: AK-based Prestwick Library Screening Results: A. baumannii (increase in extracellular AK activity).
The mark [16] stands for this setting: planktonic K. pneumoniae, 384-well, cutoff for positive-scoring molecules 3-fold increase, read-out: AK-based Prestwick Library Screening Results: K. pneumoniae (increase in extracellular AK activity).
[17] abbreviates: planktonic E. cloacae, 384-well, cutoff for positive-scoring molecules 3-fold increase, read-out: AK-based Prestwick Library Screening Results: E. cloacae (increase in extracellular AK activity).
Where [18] appears, read: planktonic E. faecium, 384-well, cutoff for positive-scoring molecules 3-fold increase, read-out: AK-based Prestwick Library Screening Results: E. faecium (increase in extracellular AK activity).
Setting [19] is: planktonic P. aeruginosa, 384-well, cutoff for positive-scoring molecules 3-fold increase, read-out: AK-based Prestwick Library Screening Results: P. aeruginosa (increase in extracellular AK activity).
[20] abbreviates: planktonic E. coli, 384-well, cutoff for positive-scoring molecules 3-fold increase, read-out: AK-based Prestwick Library Screening Results: E. coli (increase in extracellular AK activity).
The mark [21] stands for this setting: planktonic S. aureus, 384-well, cutoff for positive-scoring molecules 3-fold increase, read-out: AK-based Prestwick Library Screening Results: S. aureus (increase in extracellular AK activity).
Where [22] appears, read: planktonic, cutoff for positive 3-fold increase, read-out: AK-based Prestwick Library Screening Results, A. baumannii (fold increase in extracellular AK activity).
Where [23] appears, read: planktonic, cutoff for positive 3-fold increase, read-out: AK-based Prestwick Library Screening Results, K. pneumoniae (fold increase in extracellular AK activity).
[24] abbreviates: planktonic, cutoff for positive 3-fold increase, read-out: AK-based Prestwick Library Screening Results, E. cloacae (fold increase in extracellular AK activity).
Where [25] appears, read: planktonic, cutoff for positive 3-fold increase, read-out: AK-based Prestwick Library Screening Results, E. faecium (fold increase in extracellular AK activity).
Where [26] appears, read: planktonic, cutoff for positive 3-fold increase, read-out: AK-based Prestwick Library Screening Results, P. aeruginosa (fold increase in extracellular AK activity).
Where [27] appears, read: planktonic, cutoff for positive 3-fold increase, read-out: AK-based Prestwick Library Screening Results, E. coli (fold increase in extracellular AK activity).
[28] abbreviates: planktonic, cutoff for positive 3-fold increase, read-out: AK-based Prestwick Library Screening Results, S. aureus (fold increase in extracellular AK activity).

In the case of `CCC1=C(C)CN(C(=O)NCCc2ccc(S(=O)(=O)NC(=O)N[C@H]3CC[C@H](C)CC3)cc2)C1=O` [Glimepiride], the fold induction at 50 µM is 0.7 in experiment [1] (setting [8]); 0.7 in experiment [2] (setting [9]); 0.9 in experiment [3] (setting [10]); 1.4 in experiment [4] (setting [11]); 0.7 in experiment [5] (setting [12]); 0.5 in experiment [6] (setting [13]). In addition, the fold induction at 50 µM in experiment [7] (setting [14]) was found to be 0.5.

As for `Cc1cnc(C(=O)NCCc2ccc(S(=O)(=O)NC(=O)NC3CCCCC3)cc2)cn1` [Glipizide], the fold induction at 50 µM was found to be 1 in experiment [1] (setting [15]); 0.8 in experiment [2] (setting [16]); 1.3 in experiment [3] (setting [17]); 0.9 in experiment [4] (setting [18]); 1 in experiment [5] (setting [19]); 1.2 in experiment [6] (setting [20]). Also, in experiment [7] (setting [21]), the fold induction at 50 µM came out at 1.2.

`COc1ccc2c(c1)C(=O)N(CCc1ccc(S(=O)(=O)NC(=O)NC3CCCCC3)cc1)C(=O)C2(C)C` [Gliquidone]: the fold induction at 50 µM in experiment [1] (planktonic A. baumannii, positive cutoff 3-fold increase, read-out: AK-based Prestwick library screening result, A. baumannii (fold increase in extracellular AK activity)) was 0.7; in experiment [2] (planktonic K. pneumoniae, positive cutoff 3-fold increase, read-out: AK-based Prestwick library screening result, K. pneumoniae (fold increase in extracellular AK activity)), 0.7; in experiment [3] (planktonic E. cloacae, positive cutoff 3-fold increase, read-out: AK-based Prestwick library screening result, E. cloacae (fold increase in extracellular AK activity)) it was 1.1; in experiment [4] (planktonic E. faecium, positive cutoff 3-fold increase, read-out: AK-based Prestwick library screening result, E. faecium (fold increase in extracellular AK activity)), 0.9; in experiment [5] (planktonic P. aeruginosa, positive cutoff 3-fold increase, read-out: AK-based Prestwick library screening result, P. aeruginosa (fold increase in extracellular AK activity)), 0.8; in experiment [6] (planktonic E. coli, positive cutoff 3-fold increase, read-out: AK-based Prestwick library screening result, E. coli (fold increase in extracellular AK activity)), 0.8. Also, the fold induction at 50 µM in experiment [7] (planktonic S. aureus, positive cutoff 3-fold increase, read-out: AK-based Prestwick library screening result, S. aureus (fold increase in extracellular AK activity)) is 0.5.

Turning to `CCC1(c2ccc(N)cc2)CCC(=O)NC1=O` (stereo not shown) [Glutethimide, para-amino], in experiment [1] (384-well format, […]), the “AK-based Prestwick Library Screening Results, A. baumannii (increase in extracellular AK activity)” value was found to be 0.6. The “AK-based Prestwick Library Screening Results, K. pneumoniae (increase in extracellular AK activity)” value in experiment [2] (384-well format, […]) stood at 0.6. In experiment [3] (384-well format, […]), the “AK-based Prestwick Library Screening Results, E. cloacae (increase in extracellular AK activity)” value stood at 0.5. The “AK-based Prestwick Library Screening Results, E. faecium (increase in extracellular AK activity)” value in experiment [4] (384-well format, […]) was found to be 0.9. For the same compound, in experiment [5] (384-well format, […]), the “AK-based Prestwick Library Screening Results, P. aeruginosa (increase in extracellular AK activity)” value is given as 0.6. Besides, in experiment [6] (384-well format, […]), the “AK-based Prestwick Library Screening Results, E. coli (increase in extracellular AK activity)” value is reported as 0.5. Also, in experiment [7] (384-well format, […]), the “AK-based Prestwick Library Screening Results, S. aureus (increase in extracellular AK activity)” value worked out at 0.5.

For the compound `C[C@H](CCC(=O)NCC(=O)O)[C@H]1CC[C@H]2[C@@H]3[C@H](O)C[C@@H]4C[C@H](O)CC[C@]4(C)[C@H]3C[C@H](O)[C@]12C` [Glycocholic acid], the fold induction at 50 µM came to 1.1 in experiment [1] (setting [22]); 1 in experiment [2] (setting [23]); 1.4 in experiment [3] (setting [24]); 1.1 in experiment [4] (setting [25]); 1.1 in experiment [5] (setting [26]); 1.1 in experiment [6] (setting [27]). Also, the fold induction at 50 µM in experiment [7] (setting [28]) is 1.2.

For `C[N+]1(C)CCC(OC(=O)C(O)(c2ccccc2)C2CCCC2)C1` (stereo not shown) [Glycopyrrolate], the fold induction at 50 µM in experiment [1] (setting [8]) was determined as 0.8; in experiment [2] (setting [9]), 0.8; in experiment [3] (setting [10]), 1.1; in experiment [4] (setting [11]), 0.9; in experiment [5] (setting [12]), 0.9; in experiment [6] (setting [13]), 0.9. For the same compound, the fold induction at 50 µM in experiment [7] (setting [14]) was determined as 0.7.

As to `Cc1cc2c(C(C)C)c(O)c(O)c(C=O)c2c(O)c1-c1c(C)cc2c(C(C)C)c(O)c(O)c(C=O)c2c1O` [Gossypol], the fold induction at 50 µM in experiment [1] (planktonic, […], read-out: AK-based Prestwick Library Screening Results, A. baumannii (fold increase in extracellular AK activity)) was 0.4; in experiment [2] (planktonic, […], read-out: AK-based Prestwick Library Screening Results, K. pneumoniae (fold increase in extracellular AK activity)), 0.3; in experiment [3] (planktonic, […], read-out: AK-based Prestwick Library Screening Results, E. cloacae (fold increase in extracellular AK activity)), 1.5; in experiment [4] (planktonic, […], read-out: AK-based Prestwick Library Screening Results, E. faecium (fold increase in extracellular AK activity)) it was 1.3; in experiment [5] (planktonic, […], read-out: AK-based Prestwick Library Screening Results, P. aeruginosa (fold increase in extracellular AK activity)), 0.5; in experiment [6] (planktonic, […], read-out: AK-based Prestwick Library Screening Results, E. coli (fold increase in extracellular AK activity)), 0.6. Also, in experiment [7] (planktonic, […], read-out: AK-based Prestwick Library Screening Results, S. aureus (fold increase in extracellular AK activity)), the fold induction at 50 µM was found to be 0.2.

Take `CN(C)Cc1c[nH]c2ccccc12` [Gramine]: the fold induction at 50 µM in experiment [1] (setting [22]) was found to be 1.3; in experiment [2] (setting [23]), 1; in experiment [3] (setting [24]), 1.5; in experiment [4] (setting [25]), 1; in experiment [5] (setting [26]), 1.1; in experiment [6] (setting [27]), 1.2. Further, the fold induction at 50 µM in experiment [7] (setting [28]) was determined as 1.3.

In the case of `Cn1c(-c2ccc3c(c2)OCO3)cc(=O)c2ccccc21` [Graveoline], the fold induction at 50 µM in experiment [1] (setting [8]) was determined as 0.8; in experiment [2] (setting [9]), 0.6; in experiment [3] (setting [10]), 1.2; in experiment [4] (setting [11]) it was 0.8; in experiment [5] (setting [12]), 0.8; in experiment [6] (setting [13]) it was 0.8. In addition, the fold induction at 50 µM in experiment [7] (setting [14]) is 0.7.

Consider `COC1=CC(=O)C[C@@H](C)[C@]12Oc1c(Cl)c(OC)cc(OC)c1C2=O` [Griseofulvin], for which the fold induction at 50 µM worked out at 1.4 in experiment [1] (setting [15]); 0.9 in experiment [2] (setting [16]); 1.3 in experiment [3] (setting [17]); 1.1 in experiment [4] (setting [18]); 1.3 in experiment [5] (setting [19]); 1.3 in experiment [6] (setting [20]). In addition, the fold induction at 50 µM in experiment [7] (setting [21]) was found to be 1.4.
